The target of data set [1] is T1, Human vanilloid receptor (hVR1) (Homo sapiens, UniProt Q8NER1).
T1 construct: expressed in transfected cells
As to the kind of experiment: Capsaicin-induced Ca2+ influx in the human VR1-transfected CHO cell line (Assay 1). As to conditions: human VR1-CHOluc9aeq cells, stimulation with 10 nM capsaicin, Fluo-3 fluorescence (FDSS-3000); read-out: Activity Class (IC50). The format is cell-based. The source says:
[Measurement of Capsaicin-induced Ca^2+ influx in the Human VR1-transfected CHO Cell Line] (Assay 1)
• (1) Establishment of the Human VR1-CHOluc9aeq Cell Line • Human vanilloid receptor (hVR1) cDNA was cloned from libraries of axotomized dorsal root ganglia (WO 00/29577). The cloned hVR1 cDNA was constructed with pcDNA3 vector and transfected into a CHOluc9aeq cell line. The cell line contains aequorin and CRE-luciferase reporter genes as read-out signals. The transfectants were cloned by limiting dilution in selection medium (DMEM/F12 medium (Gibco BRL) supplemented with 10%
FCS, 1.4 mM Sodium pyruvate, 20 mM HEPES, 0.15% Sodium bicarbonate, 100 U/ml penicillin, 100 μg/ml streptomycin, 2 mM glutamine, non-essential amino acids and 2 mg/ml G418). Ca^2+ influx was examined in the capsaicin-stimulated clones. A high responder clone was selected and used for furter experiments in the project. The human VR1-CHOluc9aeq cells were maintained in the selection medium and passaged every 3-4 days at 1-2.5×10^5 cells/flask ([…]). • (2) Measurement of Ca^2+ Influx Using FDSS-3000 • Human VR1-CHOluc9aeq cells were suspended in a culture medium which is the same as the selection medium except for G418 and seeded at a density of 1,000 cells per well into 384-well plates (black walled clear-base/Nalge Nunc International). Following the culture for 48 hrs the medium was changed to 2 μM Fluo-3 AM (Molecular Probes) and 0.02% Puronic F-127 in assay buffer (Hank's balanced salt solution (HBSS), 17 mM HEPES (pH7.4), 1 mM Probenecid, 0.1% BSA) and the cells were incubated for 60 min at 25° C. After washing twice with assay buffer the cells were incubated with a test compound or vehicle for 20 min at 25° C. Mobilization of cytoplasmic Ca^2+ was measured by FDSS-3000 (λex=488 nm, λem=540 nm/Hamamatsu Photonics) for 60 sec after the stimulation with 10 nM capsaicin. Integral R was calculated and compared with controls. [Measurement of the Capsaicin-induced Ca^2+ Influx in Primary Cultured Rat Dorsal Root Ganglia Neurons] (Assay 2) • (1) Preparation of Rat Dorsal Root Ganglia Neurons • New born Wister rats (5-11 days) were sacrificed and dorsal root ganglia (DRG) was removed. DRG was incubated with 0.1% trypsin (Gibco BRL) in PBS(−) (Gibco BRL) for 30 min at 37° C., then a half volume of fetal calf serum (FCS) was added and the cells were spun down. The DRG neuron cells were resuspended in Ham F12/5% FCS/5% horse serum (Gibco BRL) and dispersed by repeated pipetting and passing through 70 μm mesh (Falcon). The culture plate was incubated for 3 hours at 37° C. to remove contaminating Schwann cells. Non-adherent cells were recovered and further cultured in laminin-coated 384 well plates (Nunc) at 1×10^4 cells/50 μl/well for 2 days in the presence of 50 ng/ml recombinant rat NGF (Sigma) and 50 μM 5-fluorodeoxyuridine (Sigma). • (2) Ca^2+ Mobilization Assay • DRG neuron cells were washed twice with HBSS supplemented with 17 mM BEPES (pH 7.4) and 0.1% BSA. After incubating with 2 μM fluo-3AM (Volectuar Probe), 0.02% PF127 (Gibco BRL) and 1 mM probenecid (Sigma) for 40 min at 37° C., cells were washed 3 times. The cells were incubated with VR1 antagonists or vehicle (dimethylsulfoxide) and then with 1 μM capsaicin in FDSS-6000 (λex=480 mn, λem=520 nm/Hamamatsu Photonics). The fluorescence changes at […] were monitored for 2.5 min. Integral R was calculated and compared with controls. [Organ Bath Assay to Measure the Capsaicin-induced Bladder Contraction] (Assay 3) • Male Wistar rats (10 week old) were anesthetized with ether and sacrificed by dislocating the necks. The whole urinary bladder was excised and placed in oxygenated Modified Krebs-Henseleit solution (pH 7.4) of the following composition (112 mM NaCl, 5.9 mM KCl, 1.2 mM MgCl2, 1.2 mM NaH2PO4, 2 mM CaCl2, […], 12 mM glucose). Contractile responses of the urinary bladder were studied as described previously [Maggi C A et al: Br. J. Pharmacol. 108: 801-805, 1993]. […]

T1 sequence (Q8NER1 whole entry): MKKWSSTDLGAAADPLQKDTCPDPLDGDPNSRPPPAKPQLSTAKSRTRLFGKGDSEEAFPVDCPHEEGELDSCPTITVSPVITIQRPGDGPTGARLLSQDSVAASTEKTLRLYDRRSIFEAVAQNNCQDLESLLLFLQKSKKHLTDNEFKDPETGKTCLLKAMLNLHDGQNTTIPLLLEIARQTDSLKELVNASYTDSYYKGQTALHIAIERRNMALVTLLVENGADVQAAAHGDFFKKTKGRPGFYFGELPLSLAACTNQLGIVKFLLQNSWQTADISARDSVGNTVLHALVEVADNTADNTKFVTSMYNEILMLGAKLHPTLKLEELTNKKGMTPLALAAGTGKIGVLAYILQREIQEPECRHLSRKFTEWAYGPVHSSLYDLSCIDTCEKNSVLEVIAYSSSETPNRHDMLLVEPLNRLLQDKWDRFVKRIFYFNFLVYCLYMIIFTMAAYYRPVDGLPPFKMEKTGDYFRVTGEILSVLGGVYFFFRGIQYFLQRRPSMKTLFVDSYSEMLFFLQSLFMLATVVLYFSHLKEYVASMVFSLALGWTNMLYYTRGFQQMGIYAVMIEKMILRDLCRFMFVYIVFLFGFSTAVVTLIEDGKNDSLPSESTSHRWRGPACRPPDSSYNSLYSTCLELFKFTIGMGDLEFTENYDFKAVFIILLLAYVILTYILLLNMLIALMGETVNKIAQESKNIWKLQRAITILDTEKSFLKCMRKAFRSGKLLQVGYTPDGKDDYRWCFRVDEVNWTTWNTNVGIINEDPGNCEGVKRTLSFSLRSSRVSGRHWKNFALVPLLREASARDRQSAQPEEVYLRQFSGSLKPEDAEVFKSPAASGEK

As to `O=C(Nc1cccc2c1C[C@H](O)CC2)C1CCN(c2ccc(C(F)(F)F)cc2Cl)CC1` [Example 1-13, 1-[2-Chloro-4-(trifluoromethyl)phenyl]-N-[(7R)-7-hydroxy-5,6,7,8-tetrahydronaphthalen-1-yl]piperidine-4-carboxamide], the melting point was found to be 226 °C. For the same compound, the IC50 in data set [1] was below 100 nM.
